Laboratory results published in patent EP0423524A2, “Propiophenone derivatives and their preparation and pharmaceutical use” (MARUHO Co., Ltd., priority 1989, dated 1991).
Structures can show the parent of a compound that is named as a salt.

How the values were obtained:
Format in all cases: in vivo
Male Slc-ddy mice [1] = assay: Inhibitory effect on the motor coordination (rotating rod test); conditions: for Inhibitory effect on motor coordination Effect: 300 - 600 mg/10 ml/kg oral, 30 min, compared with eperisone hydrochloride
Procedure: Male Slc-ddy mice of 20 - 25 g (5 weeks old) were used in groups of 7 - 10. The test compounds were used dissolved or suspended in 0.5 % CMC or 0.5 % Tween 80 solution. Each test compound (300 - 600 mg/10 ml/kg) was orally administered to the mice, and after 30 min the mice were put on a 3-cm diameter rod rotating at a speed of 10 min⁻¹ in a direction opposite to the rotation direction, and the time of staying on it was measured to a maximum of 180 s. Those falling off of the rotating rod within 60 s were judged as having an inhibitory effect on the motor coordination and, with the number of cases as index, comparison was made with the reference compound (eperisone hydrochloride).
The mice were trained in advance to be able to stay on the rotating rod for more than 300 s, and those capable of staying on it for more than 250 s immediately before testing were used.

Male Slc-ddy mice [2] = assay: Anti-nicotinic effect (survival after intravenous nicotine bitartrate); conditions: 100 mg/10 ml/kg oral, 30 min, compared with eperisone hydrochloride
Procedure: Experimental Method of Male Slc-ddy mice/30 - 35 g (6 weeks old) were used as test animals in groups of 7 - 10. The test compounds (100 mg/10 ml/kg) were orally administered to the mice, and after 30 min, nicotine bitartrate (3 mg/10 ml/kg) was administered intravenously, and the number of animals killed due to tonic convulsion was counted. The surviving animals were judged as having an anti-nicotinic effect, and with the number thereof as index the comparison concerning the anti-nicotinic effect was made with the reference compound (eperisone hydrochloride).

Male Slc-ddy mice [3] = assay: Anti-strychnine effect (time from tonic convulsions to death after subcutaneous strychnine nitrate); conditions: mice, 100 mg/10 ml/kg oral, 30 min; compared with eperisone hydrochloride
Procedure: Strychnine is known to enhance reflex stimulation, among others, of spinal cord to induce convulsions. If this effect of strychnine can be suppressed by administration of any of the above-mentioned compounds, this compound is expected to have a central muscle relaxation effect.
Male Slc-ddy mice of 25 - 30 g (5 weeks old) were used in groups of 7 - 10.
The test compounds (100 mg/10 ml/kg) were orally administered to the mice, and after 30 min, 1.5 mg/10 ml/kg of strychnine nitrate was administered subcutaneously, and the time was measured from the occurence of tonic convulsions to the death of the animals. Cases in which this time was extended to 6 min or more were judged as corresponding to an anti-strychnine effect, and with the number of such cases as index, comparison was made with the reference compound (eperisone hydrochloride). […] The ED₅₀ values (95% confidence limit) for the anti-strychnine effect were determined by the Litchfield-Wilcoxon method and are shown in Table 3.

Compound	Inhibitory effect on motor coordination Effect (Male Slc-ddy mice [1])	inhibitory effect on the motor coordination compared with eperisone hydrochloride (Male Slc-ddy mice [1]; oral)	Anti-nicotinic effect Effect (Male Slc-ddy mice [2])	Anti-strychnine effect Effect (Male Slc-ddy mice [3])	Inhibitory effect on motor coordination Durability (Male Slc-ddy mice [1]; oral)	ED50 (Male Slc-ddy mice [1]; Mus musculus, 0.5 h, oral, rotating rod 30 min after administration, falling off within 60 s counted as positive, 95% confidence limit in brackets, read-out: ED₅₀ values for the inhibitory effect on the motor coordination) [mg/kg]
CCc1ccc(C(O)C(C)Cn2ccnc2)cc1 (stereo not drawn) [Compound 22, 1-(4-ethylphenyl)-3-(1H-imidazol-1-yl)-2-methylpropan-1-ol]	◎	stronger inhibitory effect on the motor coordination than eperisone hydrochloride	◎	○		
CCc1ccc(C(=O)C(CC)CN2CCCCC2)cc1.Cl (stereo not drawn) [Compound 4, 2-ethyl-1-(4-ethylphenyl)-3-piperidinopropan-1-one hydrochloride]	0		0		-	
CCc1ccc(C(=O)C(C)(C)CN2CCCCC2)cc1 [Compound 6, 1-(4-ethylphenyl)-2,2-dimethyl-3-piperidinopropan-1-one]	◎		0			
CCc1ccc(C(=O)C(C)CN2CCN(CC(C)C(=O)c3ccc(CC)cc3)CC2)cc1.Cl.Cl (stereo not drawn) [Compound 1, N,N'-bis[2-(4-ethylbenzoyl)-propyl]-piperazine dihydrochloride]	0				-	
CCc1ccc(C(=O)C(CN2CCCCC2)c2ccccc2)cc1.Cl (stereo not drawn) [Compound 7, 1-(4-ethylphenyl)-2-phenyl-3-piperidinopropan-1-one hydrochloride]	0		0		-	
CC(Cn1ccnc1)C(=O)c1ccc(C(C)(C)C)cc1 (stereo not drawn) [Compound 11, 1-(4-t-butylphenyl)-3-(1H-imidazol-1-yl)-2-methylpropan-1-one]	0			0		
CC(C)(CN1CCCC1)C(=O)c1ccc(Cl)cc1 [Compound 25, 1-(4-chlorophenyl)-2,2-dimethyl-3-(pyrrolidin-1-yl)-propan-1-one]	◎		○			
CCc1ccc(C(=O)C(C)n2ccnc2)cc1.Cl (stereo not drawn) [Compound 21, 1-(4-ethylphenyl)-2-(1H-imidazol-1-yl)-propan-1-one hydrochloride]			◎		-	
CC(Cn1ccnc1)C(=O)c1ccc(C(C)C)cc1 (stereo not drawn) [Compound 10, 3-(1H-imidazol-1-yl)-1-(4-isopropylphenyl)-2-methylpropan-1-one]	0		0			
CCCc1ccc(C(=O)C(C)Cn2ccnc2)cc1 (stereo not drawn) [Compound 9, 3-(1H-imidazol-1-yl)-2-methyl-1-(4-n-propylphenyl)-propan-1-one]	0		◎			
CC(Cn1ccnc1)C(=O)c1ccc2c(c1)Cc1ccccc1-2 (stereo not drawn) [Compound 20, 1-(9H-fluoren-2-yl)-3-(1H-imidazol-1-yl)-2-methylpropan-1-one]	◎		◎	○	-	
CCc1ccc(C(=O)C(Cn2ccnc2)c2ccccc2)cc1 (stereo not drawn) [Compound 19, 1-(4-ethylphenyl)-3-(1H-imidazol-1-yl)-2-phenylpropan-1-one]	◎		◎		-	
CCc1ccc(C(=O)C(CN2CCCC2)c2ccccc2)cc1.Cl (stereo not drawn) [Compound 24, 1-(4-ethylphenyl)-2-phenyl-3-(pyrrolidin-1-yl)-propan-1-one hydrochloride]	○		○			
CCc1ccc(C(=O)CCn2ccnc2)cc1 [Compound 17, 1-(4-ethylphenyl)-3-(1H-imidazol-1-yl)-propan-1-one]	○		○		-	
Cc1ccc(C(=O)C(C)Cn2ccnc2)c(C)c1.Cl (stereo not drawn) [Compound 13, 3-(1H-imidazol-1-yl)-2-methyl-1-(2,4-dimethylphenyl)-propan-1-one hydrochloride]	0		◎		-	
Cc1ccc(C(=O)C(C)Cn2ccnc2)cc1 (stereo not drawn) [Compound 16, 3-(1H-imidazol-1-yl)-2-methyl-1-(4-methylphenyl)-propan-1-one]	◎		◎			
CC(Cn1ccnc1)C(=O)c1ccc2ccccc2c1 (stereo not drawn) [Compound 15, 3-(1H-imidazol-1-yl)-2-methyl-1-(2-naphthyl)-propan-1-one]	0	stronger inhibitory effect on the motor coordination than eperisone hydrochloride	◎	◎	-	152
CCc1ccc(C(=O)C(C)Cn2ccnc2C)cc1 (stereo not drawn) [Compound 26, 1-(4-ethylphenyl)-2-methyl-3-(2-methyl-1H-imidazol-1-yl)-propan-1-one]	◎		◎		-	
CCc1ccc(C(=O)C(CC)Cn2ccnc2)cc1.Cl (stereo not drawn) [Compound 18, 2-ethyl-1-(4-ethylphenyl)-3-(1H-imidazol-1-yl)-propan-1-one hydrochloride]	◎		◎			
CC(Cn1ccnc1)C(=O)c1ccccc1 (stereo not drawn) [Compound 8, 3-(1H-imidazol-1-yl)-2-methyl-1-phenyl-propan-1-one]	0					
CC(Cn1ccnc1)C(=O)c1ccc(-c2ccccc2)cc1 (stereo not drawn) [Compound 12, 1-(4-biphenyl)-3-(1H-imidazol-1-yl)-2-methylpropan-1-one]			◎		-	
CCc1ccc(C(=O)C(C)Cn2cncn2)cc1 (stereo not drawn) [Compound 27, 1-(4-ethylphenyl)-2-methyl-3-(1H-1,2,4-triazol-1-yl)-propan-1-one]	○		○		-	
CCc1ccc(C(=O)C(CN2CCCCC2)C(C)C)cc1 (stereo not drawn) [Compound 5, 1-(4-ethylphenyl)-2-isopropyl-3-piperidinopropan-1-one]	0		0		-	
CC(Cn1ccnc1)C(=O)c1ccc(Cl)cc1 (stereo not drawn) [Compound 3, hydrochloride]	0		0			
